Laboratory results from patent US20170260178A1 (SPERO GYRASE, INC., priority 2012, published 2017).

What was measured:
[1] = tested on: H. influenzae (ATCC 49247); test: Bacterial assay: MIC against H. influenzae; format: cell-based; conditions: Haemophilus influenzae, ATCC49247; H. influenzae ATCC 49247; read-out: minimal inhibitory concentration (MIC)
[2] = tested on: S. pyogenes (ATCC 51339); test: Bacterial assay: MIC against S. pyogenes; format: cell-based, Streptococcus pyogenes; conditions: Streptococcus pyogenes, ATCC51339, read-out: minimal inhibitory concentration (MIC)
[3] = tested on: S. aureus (ATCC 29213); test: Bacterial assay: MIC against S. aureus; format: cell-based, Staphylococcus aureus; conditions: Staphylococcus aureus, ATCC29213, read-out: minimal inhibitory concentration (MIC)

`[2H]C1([2H])OC([2H])([2H])C([2H])([2H])N(Cc2ccnc(-c3cc(-c4cnc(C(C)O)nc4)cc4nc(NC(=O)NCC)sc34)c2)C1([2H])[2H]` (stereo not drawn) [Compound 70, 1-ethyl-3-[5-[2-(1-hydroxyethyl)pyrimidin-5-yl]-7-[4-[(2,2,3,3,5,5,6,6-octadeuteriomorpholin-4-yl)methyl]-2-pyridyl]-1,3-benzothiazol-2-yl]urea] was tested, and the MIC [1] was at most 2 µg/mL, the MIC [2] was at most 1 µg/mL and the MIC [3] was at most 1 µg/mL.

Molecule `CNC(=O)Nc1nc2cc(-c3cnc(C(C)(C)O)nc3)cc(-c3ccccn3)c2s1` [Compound 82, 1-[5-[2-(1-hydroxy-1-methyl-ethyl)pyrimidin-5-yl]-7-(2-pyridyl)-1,3-benzothiazol-2-yl]-3-methyl-urea] has an MIC [1] of at most 2 µg/mL, an MIC [2] of at most 1 µg/mL and an MIC [3] of at most 1 µg/mL.

`CCNC(=O)Nc1nc2cc(-c3cnc(C(C)O)nc3)cc(-c3ccc(C)cn3)c2s1` (stereo not drawn) [Compound 158, 1-ethyl-3-[5-[2-[1-hydroxyethyl]pyrimidin-5-yl]-7-(5-methyl-2-pyridyl)-1,3-benzothiazol-2-yl]urea] was tested, and the MIC [1] was at most 2 µg/mL, the MIC [2] was at most 1 µg/mL and the MIC [3] was at most 1 µg/mL.

`CCNC(=O)Nc1nc2cc(-c3cnc(C(C)(C)O)nc3)cc(-c3cc(CNC4CC4)ccn3)c2s1` [Compound 53, 1-[7-[4-[(cyclopropylamino)methyl]-2-pyridyl]-5-[2-(1-hydroxy-1-methyl-ethyl)pyrimidin-5-yl]-1,3-benzothiazol-2-yl]-3-ethyl-urea] showed an MIC [1] of at most 2 µg/mL, an MIC [2] of at most 1 µg/mL and an MIC [3] of at most 1 µg/mL.

With `CCNC(=O)Nc1nc2cc(-c3cnc(C(C)(C)O)nc3)cc(-c3cc(CN4CC(C)(OC)C4)ccn3)c2s1` [Compound 114, 1-ethyl-3-[5-[2-(1-hydroxy-1-methyl-ethyl)pyrimidin-5-yl]-7-[4-[(3-methoxy-3-methyl-azetidin-1-yl)methyl]-2-pyridyl]-1,3-benzothiazol-2-yl]urea] the MIC [1] was at most 2 µg/mL, the MIC [2] was at most 1 µg/mL and the MIC [3] was at most 1 µg/mL.

Molecule `CCNC(=O)Nc1nc2cc(-c3cnc(C(O)CO)nc3)cc(-c3ccccn3)c2s1` (stereo not drawn) [Compound 40, 1-[5-[2-(1,2-dihydroxyethyl)pyrimidin-5-yl]-7-(2-pyridyl)-1,3-benzothiazol-2-yl]-3-ethyl-urea] has an MIC [1] of at most 2 µg/mL, an MIC [2] of at most 1 µg/mL and an MIC [3] of at most 1 µg/mL.

`CCNC(=O)Nc1nc2cc(-c3cnc([C@@H](O)[C@@H](C)O)nc3)cc(-c3ccccn3)c2s1` (relative stereo) [Compound 118, 1-[5-[2-[(1R*,2R*)-1,2-dihydroxypropyl]pyrimidin-5-yl]-7-(2-pyridyl)-1,3-benzothiazol-2-yl]-3-ethyl-urea] showed an MIC [1] of at most 2 µg/mL, an MIC [2] of at most 1 µg/mL and an MIC [3] of at most 1 µg/mL.

Work on `CCNC(=O)Nc1nc2cc(-c3cnc(C(C)O)nc3)cc(-c3cc(CN4CC(C)OCC4C)ccn3)c2s1` (stereo not drawn) [Compound 71, 1-[7-[4-[(2,5-dimethylmorpholin-4-yl)methyl]-2-pyridyl]-5-[2-(1-hydroxyethyl)pyrimidin-5-yl]-1,3-benzothiazol-2-yl]-3-ethyl-urea] yielded an MIC [1] of at most 2 µg/mL, an MIC [2] of at most 1 µg/mL and an MIC [3] of at most 1 µg/mL.

`CNC(=O)Nc1nc2cc(-c3cnc(C(C)O)nc3)cc(-c3ccccn3)c2s1` (stereo not drawn) [Compound 83, 1-[5-[2-(1-hydroxyethyl)pyrimidin-5-yl]-7-(2-pyridyl)-1,3-benzothiazol-2-yl]-3-methyl-urea] gave an MIC [1] of at most 2 µg/mL, an MIC [2] of at most 1 µg/mL and an MIC [3] of at most 1 µg/mL.

In the case of `CCNC(=O)Nc1nc2cc(-c3cnc(C4(O)CCS(=O)(=O)CC4)nc3)cc(-c3ccccn3)c2s1` [Compound 173, 1-ethyl-3-[5-[2-(4-hydroxy-1,1-dioxo-thian-4-yl)pyrimidin-5-yl]-7-(2-pyridyl)-1,3-benzothiazol-2-yl]urea], the MIC [1] is reported as at most 2 µg/mL, the MIC [2] is reported as at most 1 µg/mL and the MIC [3] is reported as at most 1 µg/mL.

`CCNC(=O)Nc1nc2cc(-c3cnc(C(C)O)nc3)cc(-c3cc(CN4CCSCC4)ccn3)c2s1` (stereo not drawn) [Compound 185, 1-ethyl-3-[5-[2-[1-hydroxyethyl]pyrimidin-5-yl]-7-[4-(thiomorpholinomethyl)-2-pyridyl]-1,3-benzothiazol-2-yl]urea] gave an MIC [1] of at most 2 µg/mL, an MIC [2] of at most 1 µg/mL and an MIC [3] of at most 1 µg/mL.

`CCNC(=O)Nc1nc2cc(-c3cnc(C(C)O)nc3)cc(-c3cc(CN4CC(OC)C4)ccn3)c2s1` (stereo not drawn) [Compound 76, 1-ethyl-3-[5-[2-(1-hydroxyethyl)pyrimidin-5-yl]-7-[4-[(3-methoxyazetidin-1-yl)methyl]-2-pyridyl]-1,3-benzothiazol-2-yl]urea] was tested, and the MIC [1] was at most 2 µg/mL, the MIC [2] was at most 1 µg/mL and the MIC [3] was at most 1 µg/mL.

Molecule `CCNC(=O)Nc1nc2cc(-c3cnc(C(C)O)nc3)cc(-c3ncccn3)c2s1` (stereo not drawn) [Compound 115, 1-ethyl-3-[5-[2-(1-hydroxyethyl)pyrimidin-5-yl]-7-pyrimidin-2-yl-1,3-benzothiazol-2-yl]urea] has an MIC [1] of at most 2 µg/mL, an MIC [2] of at most 1 µg/mL and an MIC [3] of at most 1 µg/mL.

`CCNC(=O)Nc1nc2cc(-c3cnc(C(O)CC)nc3)cc(-c3ccccn3)c2s1` (stereo not drawn) [Compound 59, 1-ethyl-3-[5-[2-(1-hydroxypropyl)pyrimidin-5-yl]-7-(2-pyridyl)-1,3-benzothiazol-2-yl]urea] was tested, and the MIC [1] was at most 2 µg/mL, the MIC [2] was at most 1 µg/mL and the MIC [3] was at most 1 µg/mL.

In the case of `CCNC(=O)Nc1nc2cc(-c3cnc(C(C)(C)O)nc3)cc(-c3cc(C)ncn3)c2s1` [Compound 43, 1-ethyl-3-[5-[2-(1-hydroxy-1-methyl-ethyl)pyrimidin-5-yl]-7-(6-methylpyrimidin-4-yl)-1,3-benzothiazol-2-yl]urea], the MIC [1] is reported as at most 2 µg/mL, the MIC [2] is reported as at most 1 µg/mL and the MIC [3] is reported as at most 1 µg/mL.

`CCNC(=O)Nc1nc2cc(-c3cnc(C(C)O)nc3)cc(-c3cc(CN4CCOCC4)ccn3)c2s1` (stereo not drawn) [Compound 55, 1-ethyl-3-[5-[2-(1-hydroxyethyl)pyrimidin-5-yl]-7-[4-(morpholinomethyl)-2-pyridyl]-1,3-benzothiazol-2-yl]urea] showed an MIC [1] of at most 2 µg/mL, an MIC [2] of at most 1 µg/mL and an MIC [3] of at most 1 µg/mL.

In the case of `CCNC(=O)Nc1nc2cc(-c3cnc(C(C)(C)O)nc3)cc(-c3cc(N4CCC(C)(C(=O)O)CC4)ncn3)c2s1` [Compound 87, 1-[6-[2-(ethylcarbamoylamino)-5-[2-(1-hydroxy-1-methyl-ethyl)pyrimidin-5-yl]-1,3-benzothiazol-7-yl]pyrimidin-4-yl]-4-methyl-piperidine-4-carboxylic acid], the MIC [1] is reported as at most 2 µg/mL, the MIC [2] is reported as at most 1 µg/mL and the MIC [3] is reported as at most 1 µg/mL.

`CCNC(=O)Nc1nc2cc(-c3cnc(C(C)O)nc3)cc(-c3cc(CSC)ccn3)c2s1` (stereo not drawn) [Compound 15, 1-ethyl-3-[5-[2-(1-hydroxyethyl)pyrimidin-5-yl]-7-[4-(methylsulfanylmethyl)-2-pyridyl]-1,3-benzothiazol-2-yl]urea] showed an MIC [1] of at most 2 µg/mL, an MIC [2] of at most 1 µg/mL and an MIC [3] of at most 1 µg/mL.

`CCNC(=O)Nc1nc2cc(-c3cnc(C(C)O)nc3)cc(-c3cc(OCCN4CCOCC4)ccn3)c2s1` (stereo not drawn) [Compound 75, 1-ethyl-3-[5-[2-(1-hydroxyethyl)pyrimidin-5-yl]-7-[4-(2-morpholinoethoxy)-2-pyridyl]-1,3-benzothiazol-2-yl]urea] gave an MIC [1] of at most 2 µg/mL, an MIC [2] of at most 1 µg/mL and an MIC [3] of at most 1 µg/mL.

`CCNC(=O)Nc1nc2cc(-c3cnc(C4(O)CCOCC4)nc3)cc(-c3cc(CN4CCOCC4)ccn3)c2s1` [Compound 125, 1-ethyl-3-[5-[2-(4-hydroxytetrahydropyran-4-yl)pyrimidin-5-yl]-7-[4-(morpholinomethyl)-2-pyridyl]-1,3-benzothiazol-2-yl]urea] showed an MIC [1] of at most 2 µg/mL, an MIC [2] of at most 1 µg/mL and an MIC [3] of at most 1 µg/mL.
